Assay results taken from PMC9363195, “Preclinical Pharmacokinetics, Biodistribution, and Acute Toxicity Evaluation of Caerin 1.9 Peptide in Sprague Dawley Rats” (Evidence-based Complementary and Alternative Medicine : eCAM, 2022).
Where two headings read alike, the source gives them in different places. Peptide text beside a SMILES is read from it.

Test: Pharmacokinetics of single subcutaneous injection of F3 (1.0 mg/kg)
Assay type: in vivo, Sprague Dawley rats
Conditions: single s.c. 1.0 mg/kg, plasma, LC-MS/MS; for AUC(0-inf) / AUC(0-t) / Cmax / Tmax / half-life / CL/F / MRT: Sprague-Dawley, rat, sc; for CL/F: read-out: Cl_F_obs (clearance rate) (converted); for MRT: read-out: MRTInf_obs (mean residence time)
Protocol: A single subcutaneous injection of 1.0 mg/kg F3 was given to a total of 12 SD rats (6 females, 6 males). Before and after F3 administration, whole blood samples were collected at predetermined time intervals (0, 0.5, 1, 2, 4, 6, 8, 24, 48, 72, 96, 144, and 192 hr). At each time point, at least 0.5 ml blood samples were taken alternatively from 3M/3F rats.
The concentration of F3 in rat plasma was determined by liquid chromatography-tandem mass spectrometry, using the method established by Kanglong Huacheng Co., Ltd. The analyte was assayed by liquid chromatography coupled with the tandem mass spectrometry (LC-MS/MS) method. The LC-MS/MS system consisted of a Shimadzu HPLC system (Kyoto, Japan) and an LCMS-8060 instrument (serial no. 011105500332 AE). The following were the LC conditions: column, HALO ES-C18 2.7 µ C18 160A (50 × 2.1 mm); gradient elution at 0.5 mL/min with 5% acetonitrile in water containing 0.1% formic acid or 95% acetonitrile in water containing 0.1% formic acid; and injection volume of 10 µL. A multiple reaction monitoring (MRM) method was selected for quantitative analysis. For analyte and internal standard, the optimum transitions were 519.50 > 129.15 (five charges) and 649.15 > 120.10 (four charges), 393.20 > 373.25, and 237.15 > 194.15, respectively. The instrumental parameters were set as follows: nebulizing gas flow was 3 L/min; heating gas flow was 10 L/min; interface temperature was 300°C; DL temperature was 250°C; and heat block temperature was 400°C.
PK parameters were estimated by a noncompartmental model with the calculation model of “Linear Trapezoidal Linear Interpolation” using WinNonlin (Phoenix TM, version 8.1). If the plasma F3 was detected, the following pharmacokinetic parameters were measured and calculated: Cmax (maximum blood concentration), Tmax (peak time), T1/2 (elimination half-life), AUC (area under plasma concentration-time curve), Vz_F_obs (apparent distribution volume), Cl_F_obs (clearance rate), and MRTInf_obs (mean residence time).

Which results are given for CC[C@H](C)[C@H](NC(=O)[C@H](CO)NC(=O)CNC(=O)[C@H](CC(C)C)NC(=O)[C@@H](NC(=O)CNC(=O)[C@H](Cc1ccccc1)NC(=O)[C@H](CC(C)C)NC(=O)CN)C(C)C)C(=O)N[C@@H](C)C(=O)N[C@@H](CCCCN)C(=O)N[C@@H](Cc1c[nH]cn1)C(=O)N[C@H](C(=O)N[C@@H](CC(C)C)C(=O)N1CCC[C@H]1C(=O)N[C@@H](Cc1c[nH]cn1)C(=O)N[C@H](C(=O)N[C@H](C(=O)N1CCC[C@H]1C(=O)N[C@H](C(=O)N[C@H](C(=O)N[C@@H](C)C(=O)N[C@@H](CCC(=O)O)C(=O)N[C@@H](CCCCN)C(=O)N[C@@H](CC(C)C)C(N)=O)[C@@H](C)CC)C(C)C)C(C)C)C(C)C)C(C)C [F3, Caerin 1.9] (H-GLFGVLGSIAKHVLPHVVPVIAEKL-NH2)?
AUC(0-inf) (female SD rats): 222 ng·h/mL; AUC(0-t) (female SD rats): 216 ng·h/mL; Cmax (female SD rats): 110 ng/mL; Tmax (female SD rats): 0.5 h; half-life (female SD rats): 0.677 h; CL/F (female SD rats): 75.1 mL/min/kg; MRT (female SD rats): 1.42 h; AUC(0-inf) (male SD rats): 686 ng·h/mL; AUC(0-t) (male SD rats): 661 ng·h/mL; Cmax (male SD rats): 256 ng/mL; Tmax (male SD rats): 1 h; half-life (male SD rats): 1.16 h; CL/F (male SD rats): 24.3 mL/min/kg; MRT (male SD rats): 2.05 h; AUC_%Extrap_obs (female SD rats): 2.88%; T max (female SD rats): 0.5 h; T max (male SD rats): 1 h
